What all share (test): inhibition of tumour cell growth, NCI panel, 48 h
In assay [1] the test system is HCT-116 colon.
Assay [2] concerns CCRF-CEM leukemia.
Assay [3] has as its system HOP-92 NSCLC.
Assay [4] has as its system A549 NSCLC.
Assay [5] relates to HCT-15 colon.
The test system of assay [6] is HOP-62 NSCLC.
Assay [7] has as its system KM12 colon.
Assay [8] has as its system NCI/ADR-RES ovarian.
Assay [9] concerns MDA-N.
Assay [10] has as its system SN12C renal.
The test system of assay [11] is PC-3 prostate.

SMILES strings stand for the structures.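 Values below derive from 48-hour exposures of cells grown in 96-well plates, with endpoints linearly interpolated between the two concentrations bracketing the appropriate inhibition level. GI50 marks 50% less growth. The concentration for full growth arrest is given as TGI.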

With `O=C(N/N=C/c1cc(Br)cc(Br)c1[O-])c1ccccc1O.O=C(N/N=C/c1cc(Br)cc(Br)c1[O-])c1ccccc1O.[Fe+2]`, the TGI in assay [1] was determined as 10.6 µM; in assay [2], 24.9 µM; in assay [3], 6.89 µM; in assay [4], 29.3 µM; in [5], 13.8 µM; in assay [6], 8.53 µM. In addition, in assay [7], the TGI is 23.9 µM.
Regarding `CCC(=O)Oc1c2ccsc2c(OC(=O)CC)c2ccsc12`, the TGI in assay [8] amounted to 0.832 µM; in assay [1], 1.79 µM; in [2], 9.52 µM; in [3], 3.98 µM; in assay [9], 0.136 µM; in assay [10], 1.16 µM. Further, the TGI is 4.51 µM in [4], 1.07 µM in [5], 2.95 µM in assay [6] and 3.34 µM in assay [7].
Turning to `O=[N+]([O-])c1ccc(NC(=S)N=Nc2c(O)[nH]c3ccc(Br)cc23)cc1`, the TGI in assay [8] is 6.13 µM; in [1], 18 µM; in assay [3], 22.7 µM; in assay [9], 23.5 µM; in [10], 23.8 µM; in assay [11] it was 20.7 µM. The TGI in [5] stood at 12.9 µM; in assay [6], 30.4 µM; in [7], 22 µM.
For `COc1c(Br)cc(CC(N)=O)c(O)c1Br`, the TGI in assay [1], in [2], in assay [3], in assay [10], in assay [4] and in assay [6] was more than 100 µM each time. The compound also registered a TGI in assay [7] of more than 100 µM.
For `O=C(CC1=NCCN1)c1ccccc1`, the TGI is more than 750 µM in [8]; more than 750 µM in assay [1]; more than 511 µM in [2]; more than 750 µM in assay [3]; more than 750 µM in assay [10]; more than 285 µM in assay [4]. Besides, the TGI in assay [5], in assay [6] and in assay [7] was more than 750 µM in each case.
As for `COc1ccc2c(c1)CN1C(=N2)CSC1c1ccccc1Cl` (stereo not drawn), the TGI in assay [8] was 53.8 µM; in assay [1], 33.1 µM; in assay [3], 31.2 µM; in assay [9], 36.1 µM; in assay [10], 40.1 µM; in assay [4] it was more than 100 µM. The TGI in assay [11] was 70.5 µM; in assay [5], 38.9 µM; in [6], more than 100 µM; in assay [7] it was 34.8 µM.
Consider `CCCCc1ccc(Nc2nc3c(ncn3COCCO)c(=O)[nH]2)cc1`, for which the TGI in [8], in assay [1], in [2], in assay [3], in assay [9] and in assay [10] was more than 100 µM in each case. Moreover, the TGI in assay [4], in [5], in assay [6] and in assay [7] was more than 100 µM throughout.
With `N#Cc1cc2c(cc1Cl)Sc1nccn1S2(=O)=O`, the TGI in assay [8] is 3.9 µM; in [1] it was 4.03 µM; in assay [3], 15.3 µM; in assay [10], 20.8 µM; in [4] it was 28.7 µM; in assay [11], 8.93 µM. Besides, the TGI in [5] was 3.28 µM; in assay [6], 10.8 µM; in assay [7] it was 20.7 µM.
For the compound `NC(N)=Nc1ncccc1[N+](=O)[O-]`, the TGI in [8], in assay [1], in [2], in assay [3], in assay [10] and in assay [4] was more than 100 µM each time. Moreover, the TGI in [5], in assay [6] and in assay [7] was more than 100 µM in each case.
`N#Cc1c(-c2ccc(F)cc2)nc(N/N=C/c2c[nH]c3ccccc23)nc1N1CCOCC1`: the GI50 in [8] was 13.2 µM; in [1], 2.17 µM; in [2], 3.43 µM; in assay [3] it was 2.44 µM; in assay [10], 16.6 µM; in assay [4], 3.99 µM. Also, the GI50 in [11] was 3.54 µM; in assay [5] it was 0.784 µM; in assay [7] it was 4.96 µM. For the same compound, the TGI was more than 100 µM in assay [8]; 17.9 µM in assay [1]; more than 100 µM in assay [2]; 52.4 µM in assay [3]; more than 100 µM in [10]; 69.9 µM in assay [4]. In addition, the figures for the TGI in assay [11], in assay [5] and in assay [7] were more than 100 µM, 4.56 µM and 68.9 µM, respectively.
Regarding `COCC1OC(N2C(=O)NC(=O)[C@@H]3C=C4CCCCC4=C[C@@H]32)C(OC)C1OC` (stereo partly drawn), the TGI in assay [8], in [1], in assay [3], in [9], in assay [10] and in assay [4] was more than 100 µM each time. Further, the TGI in assay [11], in assay [5], in [6] and in assay [7] was more than 100 µM each time.
In the case of `COC1(OC)CCCCC2c3cccc(OC(C)=O)c3C21OC(C)=O` (stereo not drawn), the TGI in assay [1], in [2], in assay [10], in assay [4], in [5] and in assay [6] was more than 100 µM each time. Also, the TGI in [7] is more than 100 µM.
As for `O=C(Nc1cccc(O)c1)C(=O)C(C(=O)c1ccccc1F)C1OC(=O)c2ccccc21` (stereo not drawn), the TGI is 33.9 µM in [1]; 68.5 µM in [2]; more than 100 µM in [3]; more than 100 µM in assay [10]; more than 100 µM in assay [4]; 49.2 µM in assay [5]. Moreover, the TGI in assay [6] is more than 100 µM; in assay [7] it was 71 µM.
As for `FC(F)(F)c1ccc2nc3n(c2c1)C(c1c(Cl)cccc1Cl)SC3` (stereo not drawn), the TGI in assay [8] amounted to 25.7 µM; in assay [1], 22.4 µM; in [3] it was 17.7 µM; in assay [9], 24.3 µM; in assay [10], 32.7 µM; in assay [4], 29.5 µM. Further, the TGI in assay [11] is 31.5 µM; in assay [5], 29.6 µM; in assay [6], 29.8 µM; in assay [7], 28.3 µM.
